Data published in patent publication US7585833B2, “Malodor covering perfumery” (Givaudan Fragrances Corporation, priority 2005, dated 2009).

Tests used:
[1] = Stability and malodor coverage evaluation of odorants in permanent hair color crème (10% ammonia); parameters: key to malodor coverage rating 1 Week RT / malodor coverage rating 1 Week Oven / malodor coverage rating 6 Weeks RT / malodor coverage rating 6 Weeks Oven / malodor coverage rating 2 Weeks RT / malodor coverage rating 2 Weeks Oven / malodor coverage rating 3 Weeks RT / malodor coverage rating 3 Weeks Oven / malodor coverage rating 4 Weeks RT / malodor coverage rating 4 Weeks Oven / malodor coverage rating 5 Weeks RT / malodor coverage rating 5 Weeks Oven: E: excellent; VG: very good; G: good coverage; key to odorant performance 1 Week RT / odorant performance 1 Week Oven / odorant performance 2 Weeks RT / odorant performance 2 Weeks Oven / odorant performance 3 Weeks RT / odorant performance 3 Weeks Oven / odorant performance 4 Weeks RT / odorant performance 4 Weeks Oven: E=excellent; VG=very good; G=good; F=fair; P=poor; conditions: for odorant performance 1 Week Oven / odorant performance 1 Week RT / odorant performance 2 Weeks Oven / odorant performance 2 Weeks RT / odorant performance 3 Weeks Oven / odorant performance 3 Weeks RT / odorant performance 4 Weeks Oven / odorant performance 4 Weeks RT: odorant at 0.2% in dye less permanent hair color crème (10% ammonia hydroxide); for odorant performance 1 Week Oven / odorant performance 2 Weeks Oven / odorant performance 3 Weeks Oven / odorant performance 4 Weeks Oven: oven temperature; for odorant performance 1 Week RT / odorant performance 2 Weeks RT / odorant performance 3 Weeks RT / odorant performance 4 Weeks RT / malodor coverage rating 1 Week RT / malodor coverage rating 2 Weeks RT / malodor coverage rating 3 Weeks RT / malodor coverage rating 4 Weeks RT / malodor coverage rating 5 Weeks RT / malodor coverage rating 6 Weeks RT: room temperature; for stability observation in the formulation: odorant at 0.2% in permanent hair color crème (10% ammonia hydroxide), remark beside the raw material; for malodor coverage rating 1 Week Oven / malodor coverage rating 1 Week RT / malodor coverage rating 2 Weeks Oven / malodor coverage rating 2 Weeks RT / malodor coverage rating 3 Weeks Oven / malodor coverage rating 3 Weeks RT / malodor coverage rating 4 Weeks Oven / malodor coverage rating 4 Weeks RT / malodor coverage rating 5 Weeks Oven / malodor coverage rating 5 Weeks RT / malodor coverage rating 6 Weeks Oven / malodor coverage rating 6 Weeks RT: 10% ammonia formulation; for malodor coverage rating 1 Week Oven / malodor coverage rating 2 Weeks Oven / malodor coverage rating 3 Weeks Oven / malodor coverage rating 4 Weeks Oven / malodor coverage rating 5 Weeks Oven / malodor coverage rating 6 Weeks Oven: oven at 37° C.
Source text: The marks E, VG, G stand for excellent, very good and good coverage and are part of a 5 scale rating system. […] Odorants were put up at 0.2% in the formulation, and odorants were subjected to 6 week stability testing at room temperature (R.T.) and […] oven temperature. […] G=good, F=fair; P=poor).

[2] = cited from earlier work; for ODT (ppb): odor detection threshold, Table 3

Compound | odorant performance 1 Week Oven [1] | odorant performance 1 Week RT [1] | odorant performance 2 Weeks Oven [1] | odorant performance 2 Weeks RT [1] | odorant performance 3 Weeks Oven [1] | odorant performance 3 Weeks RT [1] | odorant performance 4 Weeks Oven [1] | odorant performance 4 Weeks RT [1] | ODT (ppb) [2] | further results
CCC/C=C/C=O [TRANS-2-HEXENAL @ 10% DPG, TRANS-2-HEXENAL] | F | G | F | G | F | G | F | F | – | –
CCOC(=O)CC(C)=O [ETHYL ACETOACETATE] | F | F | F | F | F | F | F | F | – | stability observation in the formulation [1]: ETHYL ACETOACETATE (discolors in oven)
CCOC(=O)CC(C)C [ethyl 3-methylbutanoate] | – | – | – | – | – | – | – | – | less than 50 ppb | –
CCOC(=O)CC [ethyl propionate] | – | – | – | – | – | – | – | – | less than 50 ppb | –
CCCCCCOC [methyl hexyl ether] | – | – | – | – | – | – | – | – | less than 50 ppb | –
CCCOC(=O)CCC [propyl butyrate] | – | – | – | – | – | – | – | – | less than 50 ppb | –
CCCCCC(=O)OCC [ethyl hexanoate] | – | – | – | – | – | – | – | – | less than 50 ppb | –
COC(=O)C=C1CCCC1 [methyl cyclopentylidene acetate] | – | – | – | – | – | – | – | – | less than 50 ppb | –
CCCCCCC(C=O)=Cc1ccccc1 [Hexyl cinnamic aldehyde] | G | G | G | G | G | G | G | G | – | stability observation in the formulation [1]: HEXYL CINNAMIC ALDEHYDE (cloudy)
CCCC(=O)OCC [ethyl butyrate] | – | – | – | – | – | – | – | – | less than 50 ppb | –
O=C(OCc1ccccc1)c1ccccc1O [BENZYL SALICYLATE] | G | G | G | G | F | F | F | F | – | –
CC/C=C\CCOC(C)=O [cis-3-hexenyl acetate] | G | G | G | G | F | F | F | F | – | –
CC(C)CC1CC(C)(O)CCO1 (stereo not shown) [FLOROL] | F | F | P | P | P | P | P | P | – | –
CC1CC=CCCCCCCCCCC(=O)C1 (stereo not shown) [MUSCENONE @ 10% DPG] | F | F | F | F | F | F | F | F | – | –
CCCCCC(=O)CC [3-octanone] | – | – | – | – | – | – | – | – | less than 50 ppb | –
CC1COCc2cc3c(cc21)C(C)(C)C(C)C3(C)C (stereo not shown) [Galaxolide, 1,3,4,6,7,8-Hexahydro-4,6,6,7,8,8-hexamethylcyclopenta-γ-2-benzopyran] | – | – | – | – | – | – | – | – | – | malodor coverage rating 1 Week Oven [1]: E; malodor coverage rating 1 Week RT [1]: E; malodor coverage rating 2 Weeks Oven [1]: VG; malodor coverage rating 2 Weeks RT [1]: VG; malodor coverage rating 3 Weeks Oven [1]: G; malodor coverage rating 3 Weeks RT [1]: G; malodor coverage rating 4 Weeks Oven [1]: G; malodor coverage rating 4 Weeks RT [1]: G; malodor coverage rating 5 Weeks Oven [1]: G; malodor coverage rating 5 Weeks RT [1]: G; malodor coverage rating 6 Weeks Oven [1]: G; malodor coverage rating 6 Weeks RT [1]: G

Compound | odorant performance 1 Week Oven [1] | odorant performance 1 Week RT [1] | odorant performance 2 Weeks Oven [1] | odorant performance 2 Weeks RT [1] | odorant performance 3 Weeks Oven [1] | odorant performance 3 Weeks RT [1] | odorant performance 4 Weeks Oven [1] | odorant performance 4 Weeks RT [1] | ODT (ppb) [2] | further results
CCc1ccc(CC(C)(C)C=O)cc1 [FLORALOZONE] | G | G | G | G | G | G | G | G | – | –
CCCCCCOC(C)=O [hexyl acetate] | – | – | – | – | – | – | – | – | less than 50 ppb | –
CC=CC(=O)C1=C(C)CCCC1(C)C [β-damascone, β-1-(2,6,6-trimethyl-1-cyclohexen-1-yl)-2-buten-1-one] | VG | E | VG | E | G | VG | G | VG | – | odor detection threshold value in water ([2]; in water): 0.09 parts per billion; malodor coverage rating 1 Week Oven [1]: VG; malodor coverage rating 1 Week RT [1]: E; malodor coverage rating 2 Weeks Oven [1]: VG; malodor coverage rating 2 Weeks RT [1]: E; malodor coverage rating 3 Weeks Oven [1]: G; malodor coverage rating 3 Weeks RT [1]: VG; malodor coverage rating 4 Weeks Oven [1]: G; malodor coverage rating 4 Weeks RT [1]: VG; malodor coverage rating 5 Weeks Oven [1]: G; malodor coverage rating 5 Weeks RT [1]: VG; malodor coverage rating 6 Weeks Oven [1]: G; malodor coverage rating 6 Weeks RT [1]: G
CCCC(C)C(=O)OCC (stereo not shown) [ethyl 2-methylpentanoate] | – | – | – | – | – | – | – | – | less than 50 ppb | –
CCOC(=O)CC1(C)OCCO1 [ethyl 2-methyl-1,3-dioxolane-2-acetate] | – | – | – | – | – | – | – | – | less than 50 ppb | –
CCC(C)COC(C)=O (stereo not drawn) [β-methyl butyl acetate] | – | – | – | – | – | – | – | – | less than 50 ppb | –
CCCCCOC(C)=O [pentyl acetate] | – | – | – | – | – | – | – | – | less than 50 ppb | –
C=CCOC(=O)COCCC(C)C [ALLYL AMYL GLYCOLATE] | G | G | F | G | F | G | F | G | – | –
CC/C=C\CCC=O [cis-4-heptenal] | – | – | – | – | – | – | – | – | less than 50 ppb | –
CCOC(=O)C(C)CC (stereo not shown) [ethyl-2-methylbutyrate] | – | – | – | – | – | – | – | – | less than 50 ppb | –
CC(C=O)Cc1ccc(C(C)(C)C)cc1 (stereo not drawn) [Lilial, p-t-Butyl-α-methylhydrocinnamic aldehyde] | G | G | G | G | G | G | G | G | – | –
CCCCCC=O [hexanal] | – | – | – | – | – | – | – | – | less than 50 ppb | –
C=CC(C)(O)CCC=C(C)C (stereo not shown) [LINALOOL SYNTHETIC, LINALOOL] | G | G | G | G | G | G | G | G | – | –
CC/C=C\CCOC(=O)OC [cis-3-hexenyl methyl carbonate] | – | – | – | – | – | – | – | – | less than 50 ppb | –
CC12CCC(CC1)C(C)(C)O2 [1,3,3-trimethyl-2-oxabicyclo[2.2.2]octane] | – | – | – | – | – | – | – | – | less than 50 ppb | –
CC(C)=CCCC(C)C=O (stereo not shown) [2,6-dimethyl-5-heptenal] | – | – | – | – | – | – | – | – | less than 50 ppb | –
